{"source": "patent US11124481B2", "about": "(Exelixis, Inc., priority 2014, dated 2021)", "key": {"[1]": {"test": "biodistribution in mice with subcutaneous U87 tumor cells (gamma counter)", "format": "in vivo, athymic BALB/C mice", "description": ". After acute sedation with isofluorane (2%) animals were sacrificed by decapitation at 15 and 60 min following tracer injection. Blood samples were collected and portions of the liver, kidneys, heart, lungs, muscles, stomach, large intestine, small intestine, bladder, spleen, brain and femur were dissected and weighed. Radioactivity of each sample was measured using a gamma counter (1480 Wizard™ 3 Automatic Gamma Counter, PerkinElmer). Decay-corrected radioactivity concentrations were calculated as percentage of injected dose per gram tissue (% ID/g)."}, "U87 tumor cells": {"test_system": "U87 tumor cells", "test": "dynamic PET imaging in mice with orthotopically implanted U87 tumor cells", "format": "in vivo, athymic BALB/C mice", "description": "Rodent imaging experiments were performed on a dedicated small animal microPET® F120™ scanner (Siemens Preclinical Solutions, Knoxville, Tenn.). Both static and dynamic PET imaging studies were conducted on athymic BALB/C mice (Harlan) and stereotactically implanted U87 tumor cells. The mice were administered about 6.4-7.4 MBq (0.17-0.2 mCi) of [^18F]-Cabozantinib via the tail vein. The mice were anesthetized (2% isofluorane in O2 at a flow rate of 1 mL/min) during tracer injection and throughout the imaging period. After injection, each mouse was laid in the microPET scanner. A 10 minutes transmission scan was acquired using a ^57Co point source prior to either the 2 hour dynamic scan or the 45 min static scan starting at about 15 minutes after injection. Mice were visually monitored for breathing, and a heating pad was used to maintain body temperature throughout the entire procedure. […] Data were analyzed by manually drawing standardized volumes of interest using the Siemens ASIPro VM software package version 6.6. […]\nFIG. 3 depicts Positron Emission Tomography (PET) images of mice injected with [^18F]-Cabozantinib. […] A tumor:brain ratio, which is the ratio of the amount of [^18F]-Cabozantinib in the tumor compared to the amount of [^18F]-Cabozantinib in the brain in non-tumor regions, of 2.6 to 2.8 was measured for U87 stereotactically implanted tumor cells. […]"}, "[2]": {"test": "radiometabolite analysis in mouse plasma (radio-TLC)"}, "[3]": {"test": "dynamic PET imaging in tumor-free control mice", "format": "in vivo, athymic BALB/C mice", "description": "Rodent imaging experiments were performed on a dedicated small animal microPET® F120™ scanner (Siemens Preclinical Solutions, Knoxville, Tenn.). Both static and dynamic PET imaging studies were conducted on athymic BALB/C mice (Harlan) and stereotactically implanted U87 tumor cells. The mice were administered about 6.4-7.4 MBq (0.17-0.2 mCi) of [^18F]-Cabozantinib via the tail vein. The mice were anesthetized (2% isofluorane in O2 at a flow rate of 1 mL/min) during tracer injection and throughout the imaging period. After injection, each mouse was laid in the microPET scanner. A 10 minutes transmission scan was acquired using a ^57Co point source prior to either the 2 hour dynamic scan or the 45 min static scan starting at about 15 minutes after injection. Mice were visually monitored for breathing, and a heating pad was used to maintain body temperature throughout the entire procedure. PET data were reconstructed using an OSEM 2D algorithm into a 128×128×95 image matrix (resulting in final voxel dimensions of 0.79×0.79×0.8 mm). Dead time, decay correction, attenuation correction, and normalization were applied to all PET data. Data were analyzed by manually drawing standardized volumes of interest using the Siemens ASIPro VM software package version 6.6. […]"}}, "data": [{"smiles": "COc1cc2nccc(Oc3ccc(NC(=O)C4(C(=O)Nc5ccc([18F])cc5)CC4)cc3)c2cc1OC", "note": "[[^18F]-Cabozantinib, cyclopropane-1,1-dicarboxylic acid [4-(6,7-dimethoxy-quinolin-4-yloxy)-phenyl]-amide(4-[^18F]-fluoro-phenyl)amide]", "values": [{"measurement": "tracer uptake blood", "setting": "[1]; 15 minutes post injection, n=6", "result": "1.8±0.2", "unit": "% ID/g"}, {"measurement": "tracer uptake brain", "setting": "[1]; 15 minutes post injection, n=6", "result": "0.9±0.2", "unit": "% ID/g"}, {"measurement": "tracer uptake femur", "setting": "[1]; 15 minutes post injection, n=6", "result": "2.9±1.0", "unit": "% ID/g"}, {"measurement": "tracer uptake heart", "setting": "[1]; 15 minutes post injection, n=6", "result": "12.9±3.2", "unit": "% ID/g"}, {"measurement": "tracer uptake kidneys", "setting": "[1]; 15 minutes post injection, n=6", "result": "14.2±3.0", "unit": "% ID/g"}, {"measurement": "tracer uptake large intestines", "setting": "[1]; 15 minutes post injection, n=6", "result": "4.7±2.1", "unit": "% ID/g"}, {"measurement": "tracer uptake liver", "setting": "[1]; 15 minutes post injection, n=6", "result": "14.4±3.1", "unit": "% ID/g"}, {"measurement": "tracer uptake lungs", "setting": "[1]; 15 minutes post injection, n=6", "result": "6.5±1.1", "unit": "% ID/g"}, {"measurement": "tracer uptake muscles", "setting": "[1]; 15 minutes post injection, n=6", "result": "4.4±1.1", "unit": "% ID/g"}, {"measurement": "tracer uptake small intestines", "setting": "[1]; 15 minutes post injection, n=6", "result": "7.0±2.4", "unit": "% ID/g"}, {"measurement": "tracer uptake spleen", "setting": "[1]; 15 minutes post injection, n=6", "result": "4.7±1.2", "unit": "% ID/g"}, {"measurement": "tracer uptake stomach", "setting": "[1]; 15 minutes post injection, n=6", "result": "5.2±1.7", "unit": "% ID/g"}, {"measurement": "tracer uptake bladder", "setting": "[1]; 60 minutes post injection, n=6", "result": "4.3±1.2", "unit": "% ID/g"}, {"measurement": "tracer uptake blood", "setting": "[1]; 60 minutes post injection, n=6", "result": "2.2±0.3", "unit": "% ID/g"}, {"measurement": "tracer uptake brain", "setting": "[1]; 60 minutes post injection, n=6", "result": "0.9±0.1", "unit": "% ID/g"}, {"measurement": "tracer uptake femur", "setting": "[1]; 60 minutes post injection, n=6", "result": "1.8±0.8", "unit": "% ID/g"}, {"measurement": "tracer uptake heart", "setting": "[1]; 60 minutes post injection, n=6", "result": "9.5±1.5", "unit": "% ID/g"}, {"measurement": "tracer uptake kidneys", "setting": "[1]; 60 minutes post injection, n=6", "result": "11.7±1.5", "unit": "% ID/g"}, {"measurement": "tracer uptake large intestines", "setting": "[1]; 60 minutes post injection, n=6", "result": "4.6±0.9", "unit": "% ID/g"}, {"measurement": "tracer uptake liver", "setting": "[1]; 60 minutes post injection, n=6", "result": "14.0±1.9", "unit": "% ID/g"}, {"measurement": "tracer uptake lungs", "setting": "[1]; 60 minutes post injection, n=6", "result": "4.9±0.8", "unit": "% ID/g"}, {"measurement": "tracer uptake muscles", "setting": "[1]; 60 minutes post injection, n=6", "result": "4.2±0.3", "unit": "% ID/g"}, {"measurement": "tracer uptake small intestines", "setting": "[1]; 60 minutes post injection, n=6", "result": "10.7±1.1", "unit": "% ID/g"}, {"measurement": "tracer uptake spleen", "setting": "[1]; 60 minutes post injection, n=6", "result": "3.6±0.6", "unit": "% ID/g"}, {"measurement": "tracer uptake stomach", "setting": "[1]; 60 minutes post injection, n=6", "result": "8.4±1.5", "unit": "% ID/g"}, {"measurement": "crossing of the blood brain barrier", "setting": "[1]; biodistribution, 15 and 60 minutes", "result": "did not appear to cross the blood brain barrier"}, {"measurement": "SUV mean, tumor uptake", "setting": "U87 tumor cells; orthotopically implanted U87 mice, n=3", "result": 0.50}, {"measurement": "time of maximal tumor uptake post injection", "setting": "U87 tumor cells; time activity curves over 2 hour period", "result": 60, "unit": "min"}, {"measurement": "radiometabolites seen in plasma", "setting": "[2]", "result": "Only one radiometabolite"}, {"measurement": "tracer remaining intact in plasma", "setting": "[2]; 15 and 60 minutes after injection", "result": "over 80%"}, {"measurement": "SUV mean, uptake in the brain", "setting": "[3]; tumor-free control mice, summed PET images", "result": 0.19}, {"measurement": "crossing of the blood brain barrier", "setting": "[3]; tumor-free mice, PET", "result": "does not cross the blood brain barrier"}]}]}
